The values below are quoted from earlier work in US11478471B2, “Methods and compositions for treating diabetes, metabolic syndrome and other conditions” (priority 2005, dated 2022).

What is called IC50 is the point on the concentration scale where inhibition reaches its midpoint.

The data set concerns the target P450 2C6 (Rattus norvegicus, UniProt P05178). The conditions noted are these: Rotstein et al. 1992; read-out: IC50, progesterone 21 hydroxylase (2C6); cited from earlier work.

Sequence of P450 2C6 (P05178 whole entry): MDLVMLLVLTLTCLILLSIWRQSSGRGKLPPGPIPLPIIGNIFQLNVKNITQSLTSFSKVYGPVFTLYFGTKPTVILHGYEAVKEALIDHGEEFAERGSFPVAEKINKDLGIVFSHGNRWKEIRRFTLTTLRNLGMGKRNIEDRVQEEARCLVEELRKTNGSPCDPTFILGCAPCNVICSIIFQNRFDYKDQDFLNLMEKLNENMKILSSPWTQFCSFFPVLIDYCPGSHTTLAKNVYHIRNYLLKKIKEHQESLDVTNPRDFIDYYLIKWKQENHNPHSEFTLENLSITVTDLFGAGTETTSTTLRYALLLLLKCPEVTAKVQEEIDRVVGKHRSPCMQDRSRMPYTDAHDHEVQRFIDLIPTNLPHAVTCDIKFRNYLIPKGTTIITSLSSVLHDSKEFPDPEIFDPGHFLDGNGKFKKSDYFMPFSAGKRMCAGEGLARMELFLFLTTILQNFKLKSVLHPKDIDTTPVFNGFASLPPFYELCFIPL

As to `CC(=O)N1CCN(c2ccc(OC[C@@H]3CO[C@@](Cn4ccnc4)(c4ccc(Cl)cc4Cl)O3)cc2)CC1` [DIO-902, 2S,4R cis-1-acetyl-4-[4-[[2-(2,4-dichlorophenyl)-2-(1H-imidazol-1-ylmethyl)-1,3-dioxolan-4-yl]methoxyl]phenyl]piperazine], the IC50 is 9 µM.
